Legend:
[1] = biological target: visual cycle isomerase (Bos taurus (Bovine), UniProt Q28175); test: Bovine in vitro isomerase inhibition assay (RPE microsome membranes); conditions: Bovine in vitro Inhibition data; inhibition of 11-cis retinol formation; bovine RPE microsomes, 20 μM all-trans retinol, 37° C., 30 minutes; given as ranges
Procedure: The capability of compounds disclosed herein to inhibit the activity of a visual cycle isomerase was determined.
All tests were performed in duplicate.

[2] = biological target: isomerase (Mus musculus (Mouse), UniProt Q91ZQ5); test: In vivo murine isomerase assay (recovery of 11-cis-retinal after photobleaching); set-up: species or system mice; conditions: read-out: % Inhibition 1 mg/kg, 4 h
Procedure: The capability of compounds described herein to inhibit isomerase was determined by an in vivo murine isomerase assay. Brief exposure of the eye to intense light (“photobleaching” of the visual pigment or simply “bleaching”) is known to photo-isomerize almost all 11-cis-retinal in the retina. The recovery of 11-cis-retinal after bleaching can be used to estimate the activity of isomerase in vivo. Delayed recovery, as represented by lower 11-cis-retinal oxime levels, indicates inhibition of isomerization reaction.
The mice were allowed to recover 2 hours in the dark. The animals were then sacrificed by carbon dioxide inhalation. Retinoids were extracted from the eye and the regeneration of 11-cis-retinal was assessed at various time intervals.
After the mice were sacrificed, the eyes were immediately removed and placed in liquid nitrogen for storage.
The eyes were placed in 500 μL of bis-tris propane buffer (10 mM, pH ˜7.3) and 20 µL of 0.8M hydroxile amine (pH-7.3). The eyes were cut up into small pieces with small iris scissors and then thoroughly homogenized at 30000 rpm with a mechanical homogenizer (Polytron PT 1300 D) in the tube until no visible tissue remained. 500 μL of methanol and 500 μL of heptane were added to each tube. The tubes were attached to a vortexer so that the contents were mixed thoroughly for 15 minutes in room temperature. The organic phase was separated from the aqueous phase by centrifugation for 10 min at 13K rpm, 4° C. 240 μL of the solution from the top layer (organic phase) was removed and transferred to clean 300 μl glass inserts in HPLC vials using glass pipette and the vials were crimped shut tightly.
Loading volume for each sample is 100 μl; detection wavelength is 360 nm. The area under the curve for 11-cis retinal oxime was calculated by Agilent Chemstation software and was recorded manually. Data processing was performed using Prizm software.
Positive control mice (no compound administered) were sacrificed fully dark-adapted and the eye retinoids analyzed. Light (bleached) control mice (no compound administered) were sacrificed and retinoids isolated and analyzed immediately after light treatment.
Mice were sacrificed 2 hours after bleaching, eyes were enucleated, and retinoid content was analyzed by HPLC.
Recovery control mice (vehicle-only treated) were light-treated and left to recover for 2 hours in the dark before sacrifice and analysis. Light control mice (vehicle only treated) were sacrificed for analysis immediately after photo-bleaching.

[3] = biological target: recombinant human RPE65 and LRAT (Homo sapiens (Human), UniProt Q16518); test: Human in vitro isomerase inhibition assay; format: biochemical; conditions: Human in vitro Inhibition data; inhibition of 11-cis-retinol formation; HEK293 homogenate, all-trans-retinol about 20 μM, 37° C., one hour; given as ranges
Procedure: The concentration dependent effect of the compounds disclosed herein on the retinol isomerization reaction was also evaluated with a recombinant human enzyme system. […] A homogenate of HEK293 cell clone expressing recombinant human RPE65 and LRAT were the source of the visual enzymes, and exogenous all-trans-retinol (about 20 μM) was used as the substrate. Recombinant human CRALBP (about 80 ug/mL) was added to enhance the formation of 11 cis-retinal. The 200 μL Bis-Tris Phosphate buffer (10 mM, pH 7.2) based reaction mixture also contains 0.5% BSA, and 1 mM NaPPi. In this assay, the reaction was carried out at 37° C. in duplicates for one hour and was terminated by addition of 300 μL methanol. The amount of reaction product, 11-cis-retinol, was measured by HPLC analysis following Heptane extraction of the reaction mixture. […] The ability of the numerous compounds disclosed herein to inhibit isomerization reaction is quantified and the respective IC50 value is determined.

Chain of visual cycle isomerase (Q28175 2-533): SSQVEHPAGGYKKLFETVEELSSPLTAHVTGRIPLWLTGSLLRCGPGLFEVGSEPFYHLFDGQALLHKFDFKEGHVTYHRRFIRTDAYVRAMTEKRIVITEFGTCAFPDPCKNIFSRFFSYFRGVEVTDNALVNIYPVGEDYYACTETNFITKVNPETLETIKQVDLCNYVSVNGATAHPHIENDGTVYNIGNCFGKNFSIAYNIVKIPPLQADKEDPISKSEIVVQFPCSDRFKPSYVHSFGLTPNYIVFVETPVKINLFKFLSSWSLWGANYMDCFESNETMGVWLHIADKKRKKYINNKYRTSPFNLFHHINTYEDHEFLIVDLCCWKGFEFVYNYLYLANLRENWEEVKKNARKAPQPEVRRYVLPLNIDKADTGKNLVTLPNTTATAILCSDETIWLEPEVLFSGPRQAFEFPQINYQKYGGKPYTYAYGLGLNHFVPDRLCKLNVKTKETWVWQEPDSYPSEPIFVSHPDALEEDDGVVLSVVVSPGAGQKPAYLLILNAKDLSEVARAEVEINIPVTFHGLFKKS
Chain of isomerase (Q91ZQ5 whole entry): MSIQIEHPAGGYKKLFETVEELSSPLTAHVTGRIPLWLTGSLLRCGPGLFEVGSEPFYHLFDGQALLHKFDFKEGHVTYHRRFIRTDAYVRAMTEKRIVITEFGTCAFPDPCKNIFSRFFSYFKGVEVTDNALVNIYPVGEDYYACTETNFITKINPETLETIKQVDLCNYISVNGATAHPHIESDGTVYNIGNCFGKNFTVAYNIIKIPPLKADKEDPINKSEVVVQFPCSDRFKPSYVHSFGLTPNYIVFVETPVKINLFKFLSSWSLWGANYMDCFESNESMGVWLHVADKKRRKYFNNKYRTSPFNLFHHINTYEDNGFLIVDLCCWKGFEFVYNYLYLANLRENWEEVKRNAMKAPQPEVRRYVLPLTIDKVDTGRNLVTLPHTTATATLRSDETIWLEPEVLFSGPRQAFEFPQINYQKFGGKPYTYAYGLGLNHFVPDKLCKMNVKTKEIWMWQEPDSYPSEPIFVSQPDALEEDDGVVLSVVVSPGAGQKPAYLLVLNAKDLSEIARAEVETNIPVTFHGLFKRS
Chain of recombinant human RPE65 and LRAT (Q16518 2-533): as the sequence (Q28175 2-533) above, with S2I, I135V, V154I, I299L, H320N, E321G, G426C counted along it

| Structure (SMILES) | IC50 [1] | inhibition at 1 mg/kg [2] | IC50 [3] |
| --- | --- | --- | --- |
| NCCC(O)c1cccc(OCC2(O)CCCCCC2)c1 (centres unmarked) [Example 13, 1-((3-(3-Amino-1-Hydroxypropyl)Phenoxy)Methyl)Cycloheptanol] | ≤ 1000 nM | 41% | ≤ 10 nM |
| NCCCc1cccc(OCC2CCCCCC2)c1 [Example 14, 3-(3-(Cycloheptylmethoxy)phenyl)propan-1-amine] | ≤ 1000 nM | 89% | – |
| NCCC(O)c1cccc(OCC2CCCCCC2)c1 (centres unmarked) [Example 15, 3-Amino-1-(3-(cycloheptylmethoxy)phenyl)propan-1-ol] | ≤ 1000 nM | 91% | ≤ 10 nM |
| NCCC(=O)c1cccc(OCC2CCCCCC2)c1 [Example 16, 3-amino-1-(3-(cycloheptylmethoxy)phenyl)propan-1-one] | ≤ 1000 nM | 60% | – |

Other lines, results leading:

| IC50 [1] | inhibition at 1 mg/kg [2] | IC50 [3] | Structure (SMILES) |
| --- | --- | --- | --- |
| ≤ 1000 nM | 59% | – | NCCC(O)c1cccc(OCC2(O)CCCCC2)c1 (centres unmarked) [Example 12, 1-((3-(3-Amino-1-Hydroxypropyl)Phenoxy)Methyl)Cyclohexanol] |
| ≤ 1000 nM | 96% | ≤ 10 nM | CCCC(CCC)COc1cccc(C(O)CCN)c1 (centres unmarked) [Example 17, 3-Amino-1-(3-(2-propylpentyloxy)phenyl)propan-1-ol] |
| ≤ 1000 nM | 98% | – | CCCC(O)(CCC)COc1cccc(C(O)CCN)c1 (centres unmarked) [Example 20, 4-((3-(3-Amino-1-hydroxypropyl)phenoxy)methyl)heptan-4-ol] |
